IC50 data for 31 molecules are collected here from patent US11932601B2, “Immunoregulatory agents” (FLEXUS BIOSCIENCES, INC., priority 2014, dated 2024).

A value given as a limit tells only on which side of the number the result lay.

The target in the test is T1, human IDO1 (Homo sapiens, UniProt P14902).
T1 construct: expressed in transfected cells
Kind of test: HEK293 cells stably expressing human IDO1, IDO inhibition assay (kynurenine, Ehrlich reagent, absorbance 490 nm). The test is classed as cell-based. Particulars: 20 hours incubation, 500 nM reference standard = 100% inhibition, read-out: HEK Human IDO-1 Biological Activity (IC50). On the procedure:
HEK293 cells were transfected with a pCDNA-based mammalian expression vector harboring human IDO1 cDNA (NM 002164.2) by electroporation. They were cultured in medium (DMEM with 10% FBS) containing 1 mg/ml G418 for two weeks. Clones of HEK293 cells that stably expressed human IDO1 protein were selected and expanded for IDO inhibition assay.
The human IDO1/HEK293 cells were seeded at 10,000 cells per 50 μL per well with RPMI/phenol red free media contains 10% FBS in a 384-well black wall clear bottom tissue culture plate (Matrix Technologies LLC) 100 nL of certain concentration of compound was then added to each well using ECHO liquid handling systems. The cells were incubated for 20 hours in 37° C. incubator with 5% CO2.
The compound treatments were stopped by adding Trichloroacetic Acid (Sigma-Aldrich) to a final concentration at 0.2%. The cell plate was further incubated at 50° C. for 30 minute. The equal volume supernatant […] and 0.2% (w/v) Ehrlich reagent (4-dimethylaminobenzaldehyde, Sigma-Aldrich) in glacial acetic acid were mixed in a new clear bottom 384-well plate. This plate was then incubated at room temperature for 30 minute. The absorbance at 490 nm was measured on Envision plate reader.

T1 sequence (P14902 whole entry): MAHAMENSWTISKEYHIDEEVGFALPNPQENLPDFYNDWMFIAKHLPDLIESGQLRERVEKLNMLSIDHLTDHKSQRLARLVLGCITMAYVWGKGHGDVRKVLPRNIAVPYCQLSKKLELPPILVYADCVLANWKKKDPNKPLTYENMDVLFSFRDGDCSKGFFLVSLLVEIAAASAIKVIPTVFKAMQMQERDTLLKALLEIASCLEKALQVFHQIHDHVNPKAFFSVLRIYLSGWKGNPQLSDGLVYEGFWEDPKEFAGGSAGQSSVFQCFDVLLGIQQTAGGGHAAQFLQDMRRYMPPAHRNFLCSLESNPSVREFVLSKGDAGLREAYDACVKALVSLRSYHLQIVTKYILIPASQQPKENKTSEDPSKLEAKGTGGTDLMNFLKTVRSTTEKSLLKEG

One may read the IC50 as the concentration that gives 50% inhibition. With `CCC(C(=O)Nc1ccc(Cl)cc1)[C@H]1CC[C@H](Oc2ccncc2C(F)(F)F)CC1` (mixture of isomers) [Example 305, N-(4-Chlorophenyl)-2-(trans-4-((3-(trifluoromethyl)pyridin-4-yl)oxy)cyclohexyl)butanamide], the IC50 is more than 250 nM. The figure for `CCC(C(=O)Nc1ccc(Cl)cc1)[C@H]1CC[C@@H](Oc2ccncc2)CC1` (mixture of isomers) [Example 306, N-(4-Chlorophenyl)-2-(cis-4-(pyridin-4-yloxy)cyclohexyl)butanamide] is less than 50 nM. As for `CC(C(=O)Nc1ccc(Cl)cc1)[C@H]1CC[C@H](Oc2ccnc(C(F)(F)F)c2)CC1` (mixture of isomers) [Example 323, (+/−)-N-(4-chlorophenyl)-2-(trans-4-((2-(trifluoromethyl)pyridin-4-yl)oxy)cyclohexyl) propanamide], the IC50 is less than 50 nM. On to `CCC(C(=O)Nc1ccc(Cl)cc1)[C@H]1CC[C@H](Oc2ccncc2C(F)(F)F)CC1` (single isomer, unassigned) [Example 305a, N-(4-Chlorophenyl)-2-((1r,4r)-4-((3-(trifluoromethyl)pyridin-4-yl)oxy)cyclohexyl)-2λ^3-butanamide], for which the IC50 is more than 250 nM. To `CCC(C(=O)Nc1ccc(Cl)cc1)[C@H]1CC[C@H](Oc2ccncc2C(F)(F)F)CC1` (single isomer, unassigned) [Example 305b, N-(4-Chlorophenyl)-2-((1r,4r)-4-((3-(trifluoromethyl)pyridin-4-yl)oxy)cyclohexyl)-2λ^3-butanamide] belongs less than 50 nM.

Take `CCC(C(=O)Nc1ccc(Cl)cc1)[C@H]1CC[C@@H](Oc2ccncc2)CC1` (single isomer, unassigned) [Example 306a, N-(4-Chlorophenyl)-2-(cis-4-(pyridin-4-yloxy)cyclohexyl)butanamide]: the IC50 is less than 50 nM. As to `CCC(C(=O)Nc1ccc(Cl)cc1)[C@H]1CC[C@@H](Oc2ccncc2)CC1` (single isomer, unassigned) [Example 306b, N-(4-Chlorophenyl)-2-(cis-4-(pyridin-4-yloxy)cyclohexyl)butanamide], the 50% inhibitory concentration (IC50) is more than 250 nM.

For `COc1cc([C@H]2CC[C@@H]([C@H](C)C(=O)Nc3ccc(Cl)cc3)CC2)ccn1` (single isomer, unassigned) [Example 307c, N-(4-Chlorophenyl)-2-(4-(2-methoxypyridin-4-yl)cyclohexyl)propanamide], the IC50 was less than 50 nM. Turning to `COc1cc([C@H]2CC[C@@H]([C@H](C)C(=O)Nc3ccc(Cl)cc3)CC2)ccn1` (single isomer, unassigned) [Example 307d, N-(4-Chlorophenyl)-2-(4-(2-methoxypyridin-4-yl)cyclohexyl)propanamide], the IC50 is less than 50 nM. With `COc1cc([C@H]2CC[C@@H]([C@H](C)C(=O)Nc3ccc(Cl)cc3)CC2)ccn1` (single isomer, unassigned) [Example 307e, N-(4-Chlorophenyl)-2-(4-(2-methoxypyridin-4-yl)cyclohexyl)propanamide], the IC50 was less than 250 nM. Regarding `COc1cc([C@H]2CC[C@@H]([C@H](C)C(=O)Nc3ccc(Cl)cc3)CC2)ccn1` (single isomer, unassigned) [Example 307f, N-(4-Chlorophenyl)-2-(4-(2-methoxypyridin-4-yl)cyclohexyl)propanamide], the IC50 was less than 50 nM.

As to `Cc1cc(C2CCC(C(C)C(=O)Nc3ccc(Cl)cc3)CC2)cc(C)n1` (single isomer, unassigned) [Example 308a, N-(4-chlorophenyl)-2-(4-(2,6-dimethylpyridin-4-yl)cyclohexyl) propanamide], the IC50 is less than 250 nM. For `Cc1cc(C2CCC(C(C)C(=O)Nc3ccc(Cl)cc3)CC2)cc(C)n1` (single isomer, unassigned) [Example 308b, N-(4-chlorophenyl)-2-(4-(2,6-dimethylpyridin-4-yl)cyclohexyl) propanamide], the IC50 was less than 50 nM. The figure for `Cc1cc(C2CCC(C(C)C(=O)Nc3ccc(Cl)cc3)CC2)cc(C)n1` (single isomer, unassigned) [Example 308c, N-(4-chlorophenyl)-2-(4-(2,6-dimethylpyridin-4-yl)cyclohexyl) propanamide] is more than 250 nM; for `Cc1cc(C2CCC(C(C)C(=O)Nc3ccc(Cl)cc3)CC2)ccn1` (single isomer, unassigned) [Example 309a, N-(4-chlorophenyl)-2-(4-(2-methylpyridin-4-yl)cyclohexyl) propanamide] it is more than 250 nM; for `Cc1cc(C2CCC(C(C)C(=O)Nc3ccc(Cl)cc3)CC2)ccn1` (single isomer, unassigned) [Example 309b, N-(4-chlorophenyl)-2-(4-(2-methylpyridin-4-yl)cyclohexyl) propanamide] it is less than 50 nM. Regarding `Cc1cc(C2CCC(C(C)C(=O)Nc3ccc(Cl)cc3)CC2)ccn1` (single isomer, unassigned) [Example 309c, N-(4-chlorophenyl)-2-(4-(2-methylpyridin-4-yl)cyclohexyl) propanamide], the IC50 is more than 250 nM. As for `Cc1cc(C2CCC(C(C)C(=O)Nc3ccc(Cl)cc3)CC2)ccn1` (single isomer, unassigned) [Example 309d, N-(4-chlorophenyl)-2-(4-(2-methylpyridin-4-yl)cyclohexyl) propanamide], the concentration for half-maximal inhibition (IC50) was less than 50 nM. As to `Cc1c(C2CCC(C(C)C(=O)Nc3ccc(Cl)cc3)CC2)ccnc1F` (single isomer, unassigned) [Example 310a, (+/−)N-(4-chlorophenyl)-2-(4-(2-fluoro-3-methylpyridin-4-yl)cyclohexyl) propanamide], the IC50 was less than 50 nM. On to `Cc1c(C2CCC(C(C)C(=O)Nc3ccc(Cl)cc3)CC2)ccnc1F` (single isomer, unassigned) [Example 310b, (+/-)N-(4-chlorophenyl)-2-(4-(2-fluoro-3-methylpyridin-4-yl)cyclohexyl) propanamide], for which the IC50 was less than 50 nM. `Cc1c(C2CCC(C(C)C(=O)Nc3ccc(Cl)cc3)CC2)ccnc1F` (single isomer, unassigned) [Example 310c, N-(4-chlorophenyl)-2-(4-(2-fluoro-3-methylpyridin-4-yl)cyclohexyl) propanamide]: the IC50 is less than 50 nM. To `Cc1c(C2CCC(C(C)C(=O)Nc3ccc(Cl)cc3)CC2)ccnc1F` (single isomer, unassigned) [Example 310d, N-(4-chlorophenyl)-2-(4-(2-fluoro-3-methylpyridin-4-yl)cyclohexyl) propanamide] belongs less than 50 nM; to `Cc1c(C2CCC(C(C)C(=O)Nc3ccc(Cl)cc3)CC2)ccnc1F` (single isomer, unassigned) [Example 310e, N-(4-chlorophenyl)-2-(4-(2-fluoro-3-methylpyridin-4-yl)cyclohexyl) propanamide], less than 50 nM; to `Cc1c(C2CCC(C(C)C(=O)Nc3ccc(Cl)cc3)CC2)ccnc1F` (single isomer, unassigned) [Example 310f, N-(4-chlorophenyl)-2-(4-(2-fluoro-3-methylpyridin-4-yl)cyclohexyl) propanamide], less than 250 nM.

Take `Cc1nccc(C2CCC(C(C)C(=O)Nc3ccc(Cl)cc3)CC2)c1C` (single isomer, unassigned) [Example 311a, N-(4-chlorophenyl)-2-(4-(2,3-dimethylpyridin-4-yl)cyclohexyl) propanamide]: the half-maximal inhibitory concentration (IC50) was less than 50 nM. To `Cc1nccc(C2CCC(C(C)C(=O)Nc3ccc(Cl)cc3)CC2)c1C` (single isomer, unassigned) [Example 311b, N-(4-chlorophenyl)-2-(4-(2,3-dimethylpyridin-4-yl)cyclohexyl) propanamide] belongs less than 50 nM; to `Cc1nccc(C2CCC(C(C)C(=O)Nc3ccc(Cl)cc3)CC2)c1C` (single isomer, unassigned) [Example 311c, N-(4-chlorophenyl)-2-(4-(2,3-dimethylpyridin-4-yl)cyclohexyl) propanamide], more than 250 nM; to `Cc1nccc(C2CCC(C(C)C(=O)Nc3ccc(Cl)cc3)CC2)c1C` (single isomer, unassigned) [Example 311d, N-(4-chlorophenyl)-2-(4-(2,3-dimethylpyridin-4-yl)cyclohexyl) propanamide], less than 50 nM. In the case of `Cc1nccc(C2CCC(C(C)C(=O)Nc3ccc(Cl)cc3)CC2)c1C` (single isomer, unassigned) [Example 311f, N-(4-chlorophenyl)-2-(4-(2,3-dimethylpyridin-4-yl)cyclohexyl) propanamide], the IC50 is less than 250 nM. Take `CC(C(=O)Nc1ccc(Cl)cc1)C1CCC(c2ccnc(C(F)(F)F)c2)CC1` (single isomer, unassigned) [Example 312a, N-(4-chlorophenyl)-2-(4-(2-(trifluoromethyl)pyridin-4-yl)cyclohexyl) propanamide]: the IC50 was less than 250 nM. Turning to `CC(C(=O)Nc1ccc(Cl)cc1)C1CCC(c2ccnc(C(F)(F)F)c2)CC1` (single isomer, unassigned) [Example 312b, N-(4-chlorophenyl)-2-(4-(2-(trifluoromethyl)pyridin-4-yl)cyclohexyl) propanamide], the IC50 is less than 50 nM.
